Experimental data from PubChem BioAssay (NCI).
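1) Cells in 96-well plates. 2) Compound, 48 h, 5 concentrations. 3) Linear interpolation between surrounding doses. 4) Unreached endpoint = highest concentration. The concentration for full growth arrest is given as TGI.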 Where a SMILES comes first, the peptide text is derived from it. The star is where a group is joined. Cbz = O=C(OCc1ccccc1)*

Key:
Assay in all cases: DTP human tumour cell line panel, 48 h
[1] = system: TK-10 renal
[2] = system: SK-MEL-2 melanoma
[3] = system: SW-620 colon
[4] = system: NCI-H23 lung
[5] = system: A549 NSCLC
[6] = system: SF-268 CNS
[7] = system: HS 578T breast
[8] = system: OVCAR-5 ovarian
[9] = system: SN12C renal
[10] = system: LOX IMVI melanoma
[11] = system: MDA-MB-231 breast
[12] = system: OVCAR-4 ovarian
[13] = system: SF-295 CNS
[14] = system: SK-OV-3 ovarian
[15] = system: SK-MEL-5 melanoma
[16] = system: NCI/ADR-RES ovarian
[17] = system: UACC-62 melanoma
[18] = system: HCT-15 colon
[19] = system: ACHN renal
[20] = system: HCT-116 colon
[21] = system: PC-3 prostate
[22] = system: MDA-MB-435
[23] = system: MCF7 breast
[24] = system: M14 melanoma
[25] = system: NCI-H226 lung
[26] = system: MALME-3M melanoma
[27] = system: UACC-257 melanoma
[28] = system: OVCAR-8 ovarian
[29] = system: SF-539 CNS
[30] = system: HL-60(TB) leukemia
[31] = system: A498 renal
[32] = system: MDA-N
[33] = system: SNB-75 CNS
[34] = system: IGROV1 ovarian
[35] = system: COLO 205 colon
[36] = system: RXF 393 renal
[37] = system: KM12 colon
[38] = system: HOP-92 NSCLC
[39] = system: SNB-19 CNS
[40] = system: K-562 leukemia
[41] = system: UO-31 renal
[42] = system: EKVX NSCLC
[43] = system: CCRF-CEM leukemia
[44] = system: BT-549 breast
[45] = system: RPMI-8226 leukemia
[46] = system: OVCAR-3 ovarian
[47] = system: CAKI-1 renal
[48] = system: HT29 colon
[49] = system: NCI-H522 lung
[50] = system: MOLT-4 leukemia
[51] = system: HOP-62 NSCLC
[52] = system: U251 CNS
[53] = system: SR leukemia
[54] = system: 786-0 renal
[55] = system: HCC-2998 colon
[56] = system: NCI-H460 lung
[57] = system: DU-145 prostate
[58] = system: SK-MEL-28 melanoma
[59] = system: T-47D breast

Cc1nnc([C@@]2(C)CC[C@H]3[C@@H](CCC4=CC(=O)CC[C@@]43C)[C@@H]2CC#N)o1
TGI [1]: > 100 µM | TGI [2]: > 100 µM | TGI [3]: > 100 µM | TGI [4]: > 100 µM | TGI [5]: > 100 µM | TGI [6]: > 100 µM | TGI [7]: > 100 µM | TGI [8]: > 100 µM | TGI [9]: > 100 µM | TGI [10]: > 100 µM | TGI [11]: > 100 µM | TGI [12]: > 100 µM | TGI [13]: > 100 µM | TGI [14]: > 100 µM | TGI [15]: > 100 µM | TGI [16]: > 100 µM | TGI [17]: > 100 µM | TGI [18]: > 100 µM | TGI [19]: > 100 µM | TGI [20]: > 100 µM | TGI [21]: > 100 µM | TGI [22]: > 100 µM | TGI [23]: > 100 µM | TGI [24]: > 100 µM | TGI [25]: > 100 µM | TGI [26]: > 100 µM | TGI [27]: > 100 µM | TGI [28]: > 100 µM | TGI [29]: > 100 µM | TGI [30]: > 100 µM | TGI [31]: > 100 µM | TGI [32]: > 100 µM | TGI [33]: > 100 µM | TGI [34]: > 100 µM | TGI [35]: > 100 µM | TGI [36]: > 100 µM | TGI [37]: > 100 µM | TGI [38]: > 100 µM | TGI [39]: > 100 µM | TGI [40]: > 100 µM | TGI [41]: > 100 µM | TGI [42]: > 100 µM | TGI [43]: > 100 µM | TGI [44]: > 100 µM | TGI [45]: > 100 µM | TGI [46]: > 100 µM | TGI [47]: > 100 µM | TGI [48]: > 100 µM | TGI [49]: > 100 µM | TGI [50]: > 100 µM | TGI [51]: > 100 µM | TGI [52]: > 100 µM | TGI [53]: > 100 µM | TGI [54]: > 100 µM

CCOC(=O)CNC(=O)C(C)NC(=O)C(NC(=O)OCc1ccccc1)C(C)C (stereo not drawn) (Cbz-Val-Ala-Gly-OEt; configuration not given here)
TGI [1]: > 100 µM | TGI [2]: > 100 µM | TGI [3]: > 100 µM | TGI [4]: > 100 µM | TGI [5]: > 100 µM | TGI [6]: > 100 µM | TGI [7]: > 100 µM | TGI [55]: > 100 µM | TGI [8]: > 100 µM | TGI [9]: > 100 µM | TGI [13]: > 100 µM | TGI [14]: > 100 µM | TGI [15]: > 100 µM | TGI [16]: > 100 µM | TGI [17]: > 100 µM | TGI [18]: > 100 µM | TGI [56]: > 100 µM | TGI [19]: > 100 µM | TGI [20]: > 100 µM | TGI [21]: > 100 µM | TGI [22]: > 100 µM | TGI [23]: > 100 µM | TGI [24]: > 100 µM | TGI [26]: > 100 µM | TGI [27]: > 100 µM | TGI [28]: > 100 µM | TGI [29]: > 100 µM | TGI [32]: > 100 µM | TGI [33]: > 100 µM | TGI [34]: > 100 µM | TGI [35]: > 100 µM | TGI [36]: > 100 µM | TGI [37]: > 100 µM | TGI [38]: > 100 µM | TGI [39]: > 100 µM | TGI [40]: > 100 µM | TGI [41]: > 100 µM | TGI [57]: > 100 µM | TGI [42]: > 100 µM | TGI [44]: > 100 µM | TGI [45]: > 100 µM | TGI [58]: > 100 µM | TGI [46]: > 100 µM | TGI [47]: > 100 µM | TGI [48]: > 100 µM | TGI [49]: > 100 µM | TGI [50]: > 100 µM | TGI [51]: > 100 µM | TGI [52]: > 100 µM | TGI [53]: > 100 µM | TGI [54]: > 100 µM

CS/C=C\C(=O)O[C@H]1C[C@@H]2[C@@H](O)c3occ(C)c3C[C@]2(C)[C@@H](C)C1
TGI [1]: > 100 µM | TGI [3]: > 100 µM | TGI [4]: 85.8 µM | TGI [6]: 82.3 µM | TGI [7]: 71.5 µM | TGI [55]: 85.7 µM | TGI [8]: > 100 µM | TGI [9]: 30.2 µM | TGI [10]: 32.8 µM | TGI [11]: 41.7 µM | TGI [12]: 51.6 µM | TGI [13]: 77 µM | TGI [14]: > 100 µM | TGI [15]: 28.2 µM | TGI [16]: 42.3 µM | TGI [17]: 37.9 µM | TGI [18]: 95.1 µM | TGI [56]: 60.7 µM | TGI [19]: 63.2 µM | TGI [20]: 31.4 µM | TGI [21]: > 100 µM | TGI [22]: 43.6 µM | TGI [23]: 57.4 µM | TGI [24]: 38.5 µM | TGI [25]: 28.7 µM | TGI [59]: 76.9 µM | TGI [26]: 35.6 µM | TGI [27]: 30.5 µM | TGI [28]: 50.4 µM | TGI [29]: 37.7 µM | TGI [30]: 43.8 µM | TGI [32]: 47.2 µM | TGI [34]: 40.3 µM | TGI [35]: 35.6 µM | TGI [36]: 47.2 µM | TGI [37]: > 100 µM | TGI [38]: 65.6 µM | TGI [39]: > 100 µM | TGI [40]: 47 µM | TGI [57]: 90.3 µM | TGI [42]: > 100 µM | TGI [43]: > 100 µM | TGI [45]: 79.9 µM | TGI [58]: 35.9 µM | TGI [46]: 31 µM | TGI [47]: > 100 µM | TGI [48]: 51.8 µM | TGI [49]: 71.7 µM | TGI [50]: 56.3 µM | TGI [51]: 40.9 µM | TGI [52]: 7.93 µM | TGI [53]: 99.4 µM | TGI [54]: 30.2 µM

COc1ccc(-c2cc(-c3ccccc3)nc3c2CC(=O)Nc2ccccc2-3)cc1OC
TGI [1]: > 100 µM | TGI [2]: > 100 µM | TGI [3]: > 100 µM | TGI [4]: > 100 µM | TGI [5]: > 36.3 µM | TGI [6]: > 100 µM | TGI [55]: > 100 µM | TGI [8]: > 100 µM | TGI [9]: > 100 µM | TGI [10]: > 100 µM | TGI [11]: 6.21 µM | TGI [12]: > 100 µM | TGI [13]: > 100 µM | TGI [14]: > 92.6 µM | TGI [15]: > 100 µM | TGI [16]: > 100 µM | TGI [17]: > 100 µM | TGI [18]: > 100 µM | TGI [56]: > 100 µM | TGI [19]: > 100 µM | TGI [21]: > 100 µM | TGI [22]: > 100 µM | TGI [23]: > 43.1 µM | TGI [24]: > 100 µM | TGI [25]: > 100 µM | TGI [59]: > 100 µM | TGI [26]: > 70.3 µM | TGI [27]: > 100 µM | TGI [28]: 0.447 µM | TGI [29]: > 46.1 µM | TGI [31]: 50.5 µM | TGI [32]: > 100 µM | TGI [33]: 2.67 µM | TGI [34]: > 100 µM | TGI [35]: > 100 µM | TGI [36]: > 46.3 µM | TGI [37]: > 100 µM | TGI [38]: > 100 µM | TGI [39]: > 100 µM | TGI [40]: > 100 µM | TGI [41]: > 100 µM | TGI [57]: > 100 µM | TGI [42]: > 100 µM | TGI [43]: > 100 µM | TGI [44]: > 100 µM | TGI [45]: > 100 µM | TGI [58]: > 100 µM | TGI [46]: > 100 µM | TGI [47]: > 100 µM | TGI [48]: > 100 µM | TGI [49]: > 100 µM | TGI [50]: > 100 µM | TGI [51]: 18.2 µM | TGI [52]: > 100 µM | TGI [53]: > 100 µM | TGI [54]: > 100 µM
